According to patent publication US20230017045A1, “PYRIDINE AND PYRIMIDINE CARBOXYLATE HERBICIDES AND METHODS OF USE THEREOF” (Dow AgroSciences LLC, priority 2017, published 2023):

Tested on: test plant species
Assay: Post-emergent herbicidal activity test (greenhouse, foliar spray, visual growth reduction)
Format: in vivo
Details: post-emergence, 336 h, ALOMY: blackgrass (Alopecurus myosuroides), 140 g ai/ha, 14 days after application, read-out: Visual Growth Reduction (%) 14 Days After Application, ALOMY
Description: Post-emergent Test: Seeds or nutlets of the desired test plant species were planted in Sun Gro Metro-Mix® 360 planting mixture, which typically has a pH of 6.0 to 6.8 and an organic matter content of about 30 percent, in plastic pots with a surface area of 64 square centimeters. In some aspects, to ensure good germination and healthy plants, a fungicide treatment and/or other chemical or physical treatment was applied. The plants were grown for 7-21 d in a greenhouse with an approximate 15 h photoperiod which was maintained at 23-29° C. during the day and 22-28° C. during the night. Nutrients and water were added on a regular basis and supplemental lighting was provided with overhead metal halide 1000-Watt lamps as necessary. Plants were used for testing when they reached the first or second true leaf stage. A weighed amount, determined by the highest rate to be tested, of each test compound was placed in a 25 mL glass vial and was dissolved in 4 mL of a 97:3 v/v mixture of acetone and DMSO to obtain concentrated stock solutions. […] The concentrated stock solutions obtained were diluted with 20 mL of an aqueous mixture containing acetone, water, isopropyl alcohol, DMSO, […] crop oil concentrate, and X-77 surfactant in a 48.5:39:10:1.5:1.0:0.02 v/v ratio to obtain spray solutions containing the application rate. Compound requirements are based upon a 12 mL application volume at a rate of 187 liters per hectare (L/ha). Formulated compounds were applied to the plant material with an overhead Mandel track sprayer equipped with […] nozzles calibrated to deliver 187 L/ha over an application area of 0.64 square meters at a spray height of 18 inches (43 cm) above the average plant canopy height. Control plants were sprayed in the same manner with the solvent blank. The treated plants and control plants were placed in a greenhouse as described above and watered by subirrigation to prevent wash-off of the test compounds. After 14 d, the condition of the test plants as compared with that of the nontreated and control plants was determined visually and scored on a scale of 0 to 100 percent where 0 corresponds to no injury and 100 corresponds to complete control. In the reporting of the results, Table A: Percent Growth Reduction Conversion Table was used.

Question: `O=C(O)c1nc(-c2ccc(C(F)(F)C(=O)O)cc2Cl)ccc1Cl` [F180, 6-(4-(Carboxy-difluoromethyl)-2-chlorophenyl)-3-chloropicolinic acid] was tested. Which pest or weed control at 140 g/ha did it give?
Answer: The pest or weed control at 140 g/ha was 0 to 29%.

Question: For `C=Cc1c(C(F)(F)F)ccc(-c2ccc(Cl)c(C(=O)OC)n2)c1Cl` [F137, methyl 3-chloro-6-(2-chloro-4-(trifluoromethyl)-3-vinylphenyl)picolinate], which pest or weed control at 140 g/ha is on record?
Answer: Its pest or weed control at 140 g/ha is 0 to 29%.

Same assay, conditions: post-emergence, 336 h, AMARE: redroot pigweed (Amaranthus retroflexus), 140 g ai/ha, 14 days after application, read-out: Visual Growth Reduction (%) 14 Days After Application, AMARE

Question: `O=C(O)c1nc(-c2ccc(C(F)(F)C(=O)O)cc2Cl)ccc1Cl` [F180, 6-(4-(Carboxy-difluoromethyl)-2-chlorophenyl)-3-chloropicolinic acid] was tested. Which pest or weed control at 140 g/ha did it give?
Answer: The pest or weed control at 140 g/ha was 0 to 29%.

Question: How did the pest or weed control at 140 g/ha turn out when `C=Cc1c(C(F)(F)F)ccc(-c2ccc(Cl)c(C(=O)OC)n2)c1Cl` [F137, methyl 3-chloro-6-(2-chloro-4-(trifluoromethyl)-3-vinylphenyl)picolinate] was run?
Answer: Its pest or weed control at 140 g/ha is 60 to 74%.

Same assay, conditions: post-emergence, 336 h, AVEFA: wild oat (Avena fatua), 140 g ai/ha, 14 days after application, read-out: Visual Growth Reduction (%) 14 Days After Application, AVEFA

Question: For `O=C(O)c1nc(-c2ccc(C(F)(F)C(=O)O)cc2Cl)ccc1Cl` [F180, 6-(4-(Carboxy-difluoromethyl)-2-chlorophenyl)-3-chloropicolinic acid], which pest or weed control at 140 g/ha is on record?
Answer: Its pest or weed control at 140 g/ha is 0 to 29%.

Question: `C=Cc1c(C(F)(F)F)ccc(-c2ccc(Cl)c(C(=O)OC)n2)c1Cl` [F137, methyl 3-chloro-6-(2-chloro-4-(trifluoromethyl)-3-vinylphenyl)picolinate] was tested. Which pest or weed control at 140 g/ha did it give?
Answer: Its pest or weed control at 140 g/ha is 0 to 29%.

Same assay, conditions: post-emergence, 336 h, CHEAL: lambsquarters (Chenopodium album), 140 g ai/ha, 14 days after application, read-out: Visual Growth Reduction (%) 14 Days After Application, CHEAL

Question: For `O=C(O)c1nc(-c2ccc(C(F)(F)C(=O)O)cc2Cl)ccc1Cl` [F180, 6-(4-(Carboxy-difluoromethyl)-2-chlorophenyl)-3-chloropicolinic acid], which pest or weed control at 140 g/ha is on record?
Answer: Its pest or weed control at 140 g/ha is 0 to 29%.

Question: With `C=Cc1c(C(F)(F)F)ccc(-c2ccc(Cl)c(C(=O)OC)n2)c1Cl` [F137, methyl 3-chloro-6-(2-chloro-4-(trifluoromethyl)-3-vinylphenyl)picolinate] as the compound, how does the pest or weed control at 140 g/ha read?
Answer: Its pest or weed control at 140 g/ha is 75 to 84%.

Same assay, conditions: post-emergence, 336 h, CIRAR: canada thistle (Cirsium arvense), 140 g ai/ha, 14 days after application, read-out: Visual Growth Reduction (%) 14 Days After Application, CIRAR

Question: With `O=C(O)c1nc(-c2ccc(C(F)(F)C(=O)O)cc2Cl)ccc1Cl` [F180, 6-(4-(Carboxy-difluoromethyl)-2-chlorophenyl)-3-chloropicolinic acid] as the compound, how does the pest or weed control at 140 g/ha read?
Answer: Its pest or weed control at 140 g/ha is 0 to 29%.

Question: `C=Cc1c(C(F)(F)F)ccc(-c2ccc(Cl)c(C(=O)OC)n2)c1Cl` [F137, methyl 3-chloro-6-(2-chloro-4-(trifluoromethyl)-3-vinylphenyl)picolinate] was tested. Which pest or weed control at 140 g/ha did it give?
Answer: The pest or weed control at 140 g/ha was 0 to 29%.

Same assay, conditions: post-emergence, 336 h, CYPES: yellow nutsedge (Cyperus esculentus), 140 g ai/ha, 14 days after application, read-out: Visual Growth Reduction (%) 14 Days After Application, CYPES

Question: Which pest or weed control at 140 g/ha does the source give for `O=C(O)c1nc(-c2ccc(C(F)(F)C(=O)O)cc2Cl)ccc1Cl` [F180, 6-(4-(Carboxy-difluoromethyl)-2-chlorophenyl)-3-chloropicolinic acid] here?
Answer: Its pest or weed control at 140 g/ha is 0 to 29%.

Question: Which pest or weed control at 140 g/ha does the source give for `C=Cc1c(C(F)(F)F)ccc(-c2ccc(Cl)c(C(=O)OC)n2)c1Cl` [F137, methyl 3-chloro-6-(2-chloro-4-(trifluoromethyl)-3-vinylphenyl)picolinate] here?
Answer: Its pest or weed control at 140 g/ha is 0 to 29%.

Same assay, conditions: post-emergence, 336 h, DIGSA: crabgrass (Digitaria sanguinalis), 140 g ai/ha, 14 days after application, read-out: Visual Growth Reduction (%) 14 Days After Application, DIGSA

Question: `O=C(O)c1nc(-c2ccc(C(F)(F)C(=O)O)cc2Cl)ccc1Cl` [F180, 6-(4-(Carboxy-difluoromethyl)-2-chlorophenyl)-3-chloropicolinic acid] was tested. Which pest or weed control at 140 g/ha did it give?
Answer: Its pest or weed control at 140 g/ha is 0 to 29%.

Question: With `C=Cc1c(C(F)(F)F)ccc(-c2ccc(Cl)c(C(=O)OC)n2)c1Cl` [F137, methyl 3-chloro-6-(2-chloro-4-(trifluoromethyl)-3-vinylphenyl)picolinate] as the compound, how does the pest or weed control at 140 g/ha read?
Answer: The pest or weed control at 140 g/ha was 30 to 44%.

Same assay, conditions: post-emergence, 336 h, ECHCG: barnyardgrass (Echinochloa crus-galli), 140 g ai/ha, 14 days after application, read-out: Visual Growth Reduction (%) 14 Days After Application, ECHCG

Question: With `O=C(O)c1nc(-c2ccc(C(F)(F)C(=O)O)cc2Cl)ccc1Cl` [F180, 6-(4-(Carboxy-difluoromethyl)-2-chlorophenyl)-3-chloropicolinic acid] as the compound, how does the pest or weed control at 140 g/ha read?
Answer: The pest or weed control at 140 g/ha was 0 to 29%.

Question: `C=Cc1c(C(F)(F)F)ccc(-c2ccc(Cl)c(C(=O)OC)n2)c1Cl` [F137, methyl 3-chloro-6-(2-chloro-4-(trifluoromethyl)-3-vinylphenyl)picolinate] was tested. Which pest or weed control at 140 g/ha did it give?
Answer: Its pest or weed control at 140 g/ha is 0 to 29%.

Same assay, conditions: post-emergence, 336 h, IPOHE: ivy-leaf morning glory (Ipomoea hederacea), 140 g ai/ha, 14 days after application, read-out: Visual Growth Reduction (%) 14 Days After Application, IPOHE

Question: With `O=C(O)c1nc(-c2ccc(C(F)(F)C(=O)O)cc2Cl)ccc1Cl` [F180, 6-(4-(Carboxy-difluoromethyl)-2-chlorophenyl)-3-chloropicolinic acid] as the compound, how does the pest or weed control at 140 g/ha read?
Answer: The pest or weed control at 140 g/ha was 0 to 29%.

Question: For `C=Cc1c(C(F)(F)F)ccc(-c2ccc(Cl)c(C(=O)OC)n2)c1Cl` [F137, methyl 3-chloro-6-(2-chloro-4-(trifluoromethyl)-3-vinylphenyl)picolinate], which pest or weed control at 140 g/ha is on record?
Answer: The pest or weed control at 140 g/ha was 95 to 100%.

Same assay, conditions: post-emergence, 336 h, KCHSC: kochia (Bassia scoparia), 140 g ai/ha, 14 days after application, read-out: Visual Growth Reduction (%) 14 Days After Application, KCHSC

Question: With `O=C(O)c1nc(-c2ccc(C(F)(F)C(=O)O)cc2Cl)ccc1Cl` [F180, 6-(4-(Carboxy-difluoromethyl)-2-chlorophenyl)-3-chloropicolinic acid] as the compound, how does the pest or weed control at 140 g/ha read?
Answer: The pest or weed control at 140 g/ha was 0 to 29%.

Question: How did the pest or weed control at 140 g/ha turn out when `C=Cc1c(C(F)(F)F)ccc(-c2ccc(Cl)c(C(=O)OC)n2)c1Cl` [F137, methyl 3-chloro-6-(2-chloro-4-(trifluoromethyl)-3-vinylphenyl)picolinate] was run?
Answer: The pest or weed control at 140 g/ha was 0 to 29%.

Same assay, conditions: post-emergence, 336 h, ORYSA: rice (Oryza sativa), 140 g ai/ha, 14 days after application, read-out: Visual Growth Reduction (%) 14 Days After Application, ORYSA

Question: With `O=C(O)c1nc(-c2ccc(C(F)(F)C(=O)O)cc2Cl)ccc1Cl` [F180, 6-(4-(Carboxy-difluoromethyl)-2-chlorophenyl)-3-chloropicolinic acid] as the compound, how does the pest or weed control at 140 g/ha read?
Answer: Its pest or weed control at 140 g/ha is 0 to 29%.

Question: `C=Cc1c(C(F)(F)F)ccc(-c2ccc(Cl)c(C(=O)OC)n2)c1Cl` [F137, methyl 3-chloro-6-(2-chloro-4-(trifluoromethyl)-3-vinylphenyl)picolinate] was tested. Which pest or weed control at 140 g/ha did it give?
Answer: Its pest or weed control at 140 g/ha is 0 to 29%.

Same assay, conditions: post-emergence, 336 h, SETFA: giant foxtail (Setaria faberi), 140 g ai/ha, 14 days after application, read-out: Visual Growth Reduction (%) 14 Days After Application, SETFA

Question: Which pest or weed control at 140 g/ha does the source give for `O=C(O)c1nc(-c2ccc(C(F)(F)C(=O)O)cc2Cl)ccc1Cl` [F180, 6-(4-(Carboxy-difluoromethyl)-2-chlorophenyl)-3-chloropicolinic acid] here?
Answer: Its pest or weed control at 140 g/ha is 0 to 29%.

Question: `C=Cc1c(C(F)(F)F)ccc(-c2ccc(Cl)c(C(=O)OC)n2)c1Cl` [F137, methyl 3-chloro-6-(2-chloro-4-(trifluoromethyl)-3-vinylphenyl)picolinate] was tested. Which pest or weed control at 140 g/ha did it give?
Answer: The pest or weed control at 140 g/ha was 0 to 29%.

Same assay, conditions: post-emergence, 336 h, SORVU: grain sorghum (Sorghum vulgare), 140 g ai/ha, 14 days after application, read-out: Visual Growth Reduction (%) 14 Days After Application, SORVU

Question: How did the pest or weed control at 140 g/ha turn out when `O=C(O)c1nc(-c2ccc(C(F)(F)C(=O)O)cc2Cl)ccc1Cl` [F180, 6-(4-(Carboxy-difluoromethyl)-2-chlorophenyl)-3-chloropicolinic acid] was run?
Answer: Its pest or weed control at 140 g/ha is 0 to 29%.

Question: How did the pest or weed control at 140 g/ha turn out when `C=Cc1c(C(F)(F)F)ccc(-c2ccc(Cl)c(C(=O)OC)n2)c1Cl` [F137, methyl 3-chloro-6-(2-chloro-4-(trifluoromethyl)-3-vinylphenyl)picolinate] was run?
Answer: The pest or weed control at 140 g/ha was 60 to 74%.

Same assay, conditions: post-emergence, 336 h, STEME: common chickweed (Stellaria media), 140 g ai/ha, 14 days after application, read-out: Visual Growth Reduction (%) 14 Days After Application, STEME

Question: For `O=C(O)c1nc(-c2ccc(C(F)(F)C(=O)O)cc2Cl)ccc1Cl` [F180, 6-(4-(Carboxy-difluoromethyl)-2-chlorophenyl)-3-chloropicolinic acid], which pest or weed control at 140 g/ha is on record?
Answer: Its pest or weed control at 140 g/ha is 0 to 29%.

Question: With `C=Cc1c(C(F)(F)F)ccc(-c2ccc(Cl)c(C(=O)OC)n2)c1Cl` [F137, methyl 3-chloro-6-(2-chloro-4-(trifluoromethyl)-3-vinylphenyl)picolinate] as the compound, how does the pest or weed control at 140 g/ha read?
Answer: Its pest or weed control at 140 g/ha is 0 to 29%.

Same assay, conditions: post-emergence, 336 h, TRZAS: wheat, spring (Triticum aestivum), 140 g ai/ha, 14 days after application, read-out: Visual Growth Reduction (%) 14 Days After Application, TRZAS

Question: For `O=C(O)c1nc(-c2ccc(C(F)(F)C(=O)O)cc2Cl)ccc1Cl` [F180, 6-(4-(Carboxy-difluoromethyl)-2-chlorophenyl)-3-chloropicolinic acid], which pest or weed control at 140 g/ha is on record?
Answer: The pest or weed control at 140 g/ha was 0 to 29%.

Question: How did the pest or weed control at 140 g/ha turn out when `C=Cc1c(C(F)(F)F)ccc(-c2ccc(Cl)c(C(=O)OC)n2)c1Cl` [F137, methyl 3-chloro-6-(2-chloro-4-(trifluoromethyl)-3-vinylphenyl)picolinate] was run?
Answer: Its pest or weed control at 140 g/ha is 0 to 29%.
